Data reported in patent EP0007672A1, “Isocyanoalkenes, process and useful intermediates for their preparation, pharmaceutical and fungicidal preparations containing those isocyanoalkenes and the use of the fungicidal preparations in agriculture” (GIST-BROCADES N.V., priority 1978, dated 1980).
Read-outs that look alike come from different tables or passages of the source.

Experiments:
Experiment in all cases: MIC (Minimum Inhibitory Concentration)
Assay type in all cases: cell-based
[1] = test system: Trichophyton schoenleinii; details: read-out: MIC values
[2] = test system: Trichophyton soudanese joyeux; details: read-out: MIC values
[3] = test system: Trichophyton rubrum
[4] = test system: Fusarium (tulip); details: Fusarium (tulip) A 3253
[5] = test system: Trichophyton equinum
[6] = test system: Rhizoctonia solani; details: read-out: MIC values
[7] = test system: Trichophyton mentagrophytus
[8] = test system: Trichophyton quickeaneum; details: read-out: MIC values
[9] = test system: Candida albicans
[10] = test system: Fusarium solani; details: read-out: MIC values
[11] = test system: Fusarium (bulb); details: Fusarium (bulb) A 3252
[12] = test system: Trichophyton violoceum; details: read-out: MIC values

Measured: MIC

[C-]#[N+]C(=Cc1ccccc1)S(=O)(=O)c1ccc(C)cc1 [Example 1, 1-isocyano-2-phenyl-1-(4-toluenesulphonyl)-ethene]
4.5 µg/mL: [6]; Rhizoctonia solani 200-25
25 µg/mL: [9]; Candida albicans A 3165, read-out: MIC values | [9]; Candida albicans A 3167, read-out: MIC values | [9]; Candida albicans A 3194, read-out: MIC values
50 µg/mL: [4] | [10]; Fusarium solani A 3245
0.1 µg/mL: [1]; Trichophyton schoenleinii 435-63 | [3]; Trichophyton rubrum 494-62, read-out: MIC values | [12]; Trichophyton violoceum 442-62
6 µg/mL: [7]; Trichophyton mentagrophytus R 177, read-out: MIC values | [7]; Trichophyton mentagrophytus RRL 305, read-out: MIC values | [9]; Candida albicans A 3190, read-out: MIC values | [9]; Candida albicans A 3192, read-out: MIC values
3 µg/mL: [5]; Trichophyton equinum 182-76, read-out: MIC values | [5]; Trichophyton equinum 856-71, read-out: MIC values | [8]; Trichophyton quickeaneum A 2040
1.5 µg/mL: [7]; Trichophyton mentagrophytus 367-68, read-out: MIC values | [7]; Trichophyton mentagrophytus 421-67, read-out: MIC values | [7]; Trichophyton mentagrophytus A 3252, read-out: MIC values | [9]; Candida albicans A 7, read-out: MIC values
12.5 µg/mL: [2]; Trichophyton soudanese joyeux 440-63 | [9]; Candida albicans A 3140, read-out: MIC values | [9]; Candida albicans A 3141, read-out: MIC values | [9]; Candida albicans A 3142, read-out: MIC values | [9]; Candida albicans A 3143, read-out: MIC values | [9]; Candida albicans A 3144, read-out: MIC values | [9]; Candida albicans A 3145, read-out: MIC values | [9]; Candida albicans A 3166, read-out: MIC values | [9]; Candida albicans A 3168, read-out: MIC values | [9]; Candida albicans A 3169, read-out: MIC values | [9]; Candida albicans A 3171, read-out: MIC values | [9]; Candida albicans A 3184, read-out: MIC values | [9]; Candida albicans A 3191, read-out: MIC values | [9]; Candida albicans A 3196, read-out: MIC values
> 100 µg/mL: [7]; Trichophyton mentagrophytus R 178, read-out: MIC values | [11]

[C-]#[N+]C(=C1CCCCC1)S(=O)(=O)c1ccc(C)cc1 [Example 7, a-cyclohexylidene-a-(4-toluenesulphonyl)-methylisocyanide]
18.8 µg/mL: [11]
0.2 µg/mL: [1]; Trichophyton schoenleinii | [12]; Trichophyton
6 µg/mL: [9]; read-out: MIC values, Candida albicans A 3143 | [9]; read-out: MIC values, Candida albicans A 3144 | [9]; read-out: MIC values, Candida albicans A 3145 | [9]; read-out: MIC values, Candida albicans A 3165 | [9]; read-out: MIC values, Candida albicans A 3166 | [9]; read-out: MIC values, Candida albicans A 3167 | [9]; read-out: MIC values, Candida albicans A 3168 | [9]; read-out: MIC values, Candida albicans A 3169 | [9]; read-out: MIC values, Candida albicans A 3171 | [9]; read-out: MIC values, Candida albicans A 3191 | [9]; read-out: MIC values, Candida albicans A 3192 | [9]; read-out: MIC values, Candida albicans A 3194
3 µg/mL: [5]; read-out: MIC values, Trichophyton equinum 182-76 | [5]; read-out: MIC values, Trichophyton equinum 856-71 | [7]; read-out: MIC values, Trichophyton mentagrophytus R 177 | [9]; read-out: MIC values, Candida albicans A 3140 | [9]; read-out: MIC values, Candida albicans A 3184 | [9]; read-out: MIC values, Candida albicans A 3190
1.5 µg/mL: [6]; Rhizoctonia solani | [7]; read-out: MIC values, Trichophyton mentagrophytus 421-67 | [7]; read-out: MIC values, Trichophyton mentagrophytus RRL 305
12.5 µg/mL: [2]; Trichophyton | [4] | [7]; read-out: MIC values, Trichophyton mentagrophytus R 178 | [9]; read-out: MIC values, Candida albicans A 3141 | [9]; read-out: MIC values, Candida albicans A 3142 | [9]; read-out: MIC values, Candida albicans A 3196 | [10]; Fusarium solani
0.8 µg/mL: [3]; read-out: MIC values, Trichophyton rubrum 494-62 | [3]; read-out: MIC values, Trichophyton rubrum A 810 | [7]; read-out: MIC values, Trichophyton mentagrophytus 367-68 | [7]; read-out: MIC values, Trichophyton mentagrophytus A 3252 | [8]; Trichophyton | [9]; read-out: MIC values, Candida albicans A 7
